From US8772321B2, “Heteroannelated anthraquinone derivatives for inhibiting cancers” (National Defense Medical Center, priority 2008, dated 2014)
Where a SMILES comes first, the peptide text is derived from it. The star is where a group is joined. Cbz = O=C(OCc1ccccc1)*

What was measured:
Type in all cases: cell-based, human
HeLa cells [1] = assay: DNA damage, immunoblot of γ-phosphorylation of histone H2A.X; details: various doses, 12 hour
Method: The anthracyclin antibiotic agent doxorubicin (DXR) is an active cytotoxic reagent with a wide range of clinical indications, including treatment of solid tumors in the ovary, breast, and gastrointestinal systems, as well as treatment of liquid tumors such as leukemia. […] Specifically, HeLa cells were treated with NSC745885 at various doses for 12 hour. The phosphorylation of γ-H2A.X was subsequently detected by the immunoblot.
(§1) Cell lysates were prepared in lysis buffer (100 mM Tris-HCl pH 8.0, 150 mM NaCl, 0.1% SDS, and 1% Triton 100) at 4° C., separated by sodium dodecyl sulfate-polyacrylamide gel electrophoresis (SDS-PAGE), and then transferred onto a polyvinylidine difluoride membrane (Millipore, USA). Proteins were detected using antibodies against alpha actinin (ACTN), proliferating cell nuclear antigen (PCNA), p53, p21, cyclin B1, and cyclin D1 (Santa Cruz Biotechnology, USA), YH2A.X (EP854(2)Y, Epitomics, USA), cleaved caspase 3, cleaved poly(ADP-ribose) polymerase (PARP) and LC3B-II (Cell signaling, USA).

HeLa cells [2] = assay: Cell cycle profile by FACS
From the text: Cell cycle arrest is an important damage surveillance mechanism. […] Treating the cells with NSC745885 caused 47-58% of cells to arrest in sub-G1, which is indicative of cell death. This effect was dose- and time-dependent (FIG. 3, Panel B).

HeLa cells [3] = assay: Apoptosis: cleaved PARP and caspase 3 immunoblot, DNA fragmentation gel; details: various doses, 16 hours
Method: It is well noted that DXR can induce cardiomyocyte death by apoptosis and necrosis. DXR is also involved in other types of cellular processes, such as autophagy and senescence/aging. To investigate induction of apoptosis caused by NSC745885, we adopted DXR as a positive control and examined the levels of cleaved PARP and caspase 3 as apoptotic indicators using immunoblot (FIG. 4A), as well as DNA fragmentation using agarose gel electrophoresis (FIG. 4B). HeLa cells were treated with either DXR or NSC745885 at various doses for 16 hours. Subsequently, the total cellular protein was extracted and immunoblotted with antibodies against the cleaved types of PARP and caspase 3. Additionally, genomic DNA was isolated and analyzed by 2% agarose gel electrophoresis followed by ethidium bromide staining. The results (FIG. 4A and FIG. 4B) are representative of three independent experiments. […] Treatment with NSC745885 decreased protein stability, an effect that appeared to be selective, and was confirmed in other immunoblot analyses (shown in FIG. 6A, lanes 1 and 6).
as §1

HeLa cells [4] = assay: Autophagy: LC3B-II immunoblot; details: 12 hours
Method: as §1
Altered intracellular localization of LC3B (LC3B-I) and increased electrophoretic mobility of LC3B (LC3B-II) are correlated with recruitment to autophagic membranes and can be used as molecular markers for autophagic activation.
In FIG. 5A, HeLa cells were treated with the indicated concentrations of DXR, NSC745885 for 12 hours, and then cell lysates were analyzed by immunoblot using antibodies directed against LC3. The results are representative of three independent experiments.

HeLa cells [5] = assay: Autophagosome formation, GFP-LC3 fluorescence microscopy; details: HeLa cells transfected with GFP-LC3; 2.5 μM NSC745885, 12 hours
Method: In FIG. 5B, HeLa cells were transfected with 0.25 μg of an expression vector for GFP-LC3 for 24 hours and then treated with 2.5 μM NSC745885 for 12 hours. […] Vehicle (DMSO) and spermidine (Spd) were used as a negative and positive control, respectively.
(§2) In FIGS. 5C and 5D, HeLa cells were incubated with 2.5 μM NSC745885 for 24 hours. After 48 hours, cells were subjected to SA-β-galactosidase staining (FIG. 5C) and approximately 100 stained cells were quantified (*P<0.05; ** P<0.01; *** P<0.005). NSC745885 induced senescence at a rate of 25% (P=0.0085 compared to DMSO). (FIG. 5D) LC3B-I fragments were observed when the cells were exposed to the drug for longer period of time (FIG. 5A, panel labeled as LE). […] We also treated Hela cells with the autophagy inducer spermidine (Spd) and vehicle (DMSO), which act as the positive and the negative control, respectively.

HeLa cells [6] = assay: Senescence-associated β-galactosidase staining; details: DXR at low concentrations
Method: Cultured cells were washed in PBS (pH 7.4), incubated in a solution of 2% formaldehyde/0.2% glutaraldehyde, and then incubated overnight at 37° C. in freshly prepared staining solution consisting of 1 mg/mL X-gal (5-bromo-4-chloro-3-indolyl-β-D-galactoside), 5 mM K3Fe(CN)6, 5 mM K4Fe(CN)6, 150 mM NaCl and 2 mM MgCl2 in 40 mM citric acid/sodium phosphate, pH 6.0. Following this incubation, cells were washed with water and examined by light microscopy at 200× magnification.
as §2

[7] = test system: p53-dependent reporter (pG13-LUC); assay: p53-dependent reporter (pG13-LUC) luciferase assay; details: HeLa cells co-transfected with Zac1 expression vector
Method: (§3) HeLa and HeLa/shp53 cells were grown in DMEM supplemented with 10% charcoal/dextran-treated fetal bovine serum. Cells in a 24-well plate were transfected with jetPEI (PolyPlus-transfection, France) according to the manufacturer's protocol; total DNA was adjusted to 1.0 μg by the addition of empty vector DNA. Luciferase assays were performed using the Promega Luciferase Assay kit, and the measurement was expressed numerically as relative light units (RLU). Luciferase activities were presented as means and standard deviation of two transfected sets. […] Instead, the reproducibility of the observed effects on luciferase activity was determined in multiple independent transfection experiments.
HeLa cells infected with human papillomavirus and expressing the E6 oncoprotein, which maintains endogenous wild-type p53 at a very low concentration, are used as a model system for studying human cervical tumorigenesis. In order for us to confirm the effects of DXR and NSC745885 on endogenous p53, HeLa cells were transiently transfected with a p53-dependent reporter (pG13-LUC) (FIG. 7A) and a p21 promoter reporter (p21-LUC) (FIG. 7B), along with an expression vector for a well-known p53 activator (Zac1).

HeLa/shp53 cells = assay: MTT cell viability assay, HeLa vs HeLa/shp53; details: endogenous p53 silenced; 24, 48, 72 hours
Method: as §3
To understand the functional role that endogenous p53 plays in the cytotoxic effects of DXR and NSC745885, we measured cell viability of HeLa or HeLa/shp53 cells using MTT cell viability assay. In this assay, endogenous p53 is silenced, both in the presence or absence of the drugs (FIG. 8). […]

p53 and p21 = p53 and p21 protein expression, immunoblot; details: HeLa cells, MG132 1 uM or 10 uM added 3 hours before harvesting; only at lower concentrations of NSC745885
Method: as §1
Cell cycle regulatory protein p21 is one of p53's targets. […] In this experiment, HeLa cells were treated with the indicated concentrations of DXR or NSC745885 for 12 hours and then assessed by immunoblot (FIG. 6A) and RT-PCR (FIG. 6B).
In FIG. 6C, HeLa cells were treated with the indicated concentrations of NSC745885 for 12 hours; proteasome inhibitor MG132 (1 uM or 10 uM) was added 3 hours before harvesting. Cell protein extracts were tested with anti-p53 and anti-p21 antibodies. The results are representative of two independent experiments.

| Compound | DNA damage (phosphorylation of γ-H2A.X, immunoblot) (HeLa cells [1]) | cell cycle arrest (HeLa cells [2]) | induction of apoptosis (cleaved PARP, caspase 3, DNA fragmentation) (HeLa cells [3]) | LC3B-II fragment formation (autophagic activation) (HeLa cells [4]) | autophagosome formation (LC3 aggregation, GFP-LC3) (HeLa cells [5]) | senescence rate (SA-β-galactosidase staining) (HeLa cells [6]) | Zac1-induced p53-dependent reporter activity [7] | sensitivity (cell viability, MTT) in HeLa/shp53 versus HeLa cells (HeLa/shp53 cells) | effect of MG132 on p53 and p21 degradation by NSC745885 (p53 and p21) |
| --- | --- | --- | --- | --- | --- | --- | --- | --- | --- |
| COc1cccc2c1C(=O)c1c(O)c3c(c(O)c1C2=O)C[C@@](O)(C(=O)CO)C[C@@H]3O[C@H]1C[C@H](N)[C@H](O)[C@H](C)O1 [DXR, doxorubicin, reference compound] | strongly induced DNA damage | cell cycle arrest in S phase | strongly induced | LC3B-II fragment formation | autophagosome formation | 73% | inhibited Zac1-induced activity | dependent on endogenous p53 for cell killing |  |
| CC(C)C[C@@H](C=O)NC(=O)[C@H](CC(C)C)NC(=O)[C@H](CC(C)C)NC(=O)OCc1ccccc1 [MG132, reference compound] (Cbz-Leu-Leu-Leu-aldehyde) |  |  |  |  |  |  |  |  | attenuate the degradation of p53 and p21 |
